Type in all cases: in vivo
One test relates to Plasmopara viticola. As to the kind of experiment: Test A: grape downy mildew, spray after inoculation, visual disease rating (% disease control). The settings on record: 100 = 100% disease control, 0 = no control. From the text: General protocol for preparing test suspensions for Test A-C: The test compounds were first dissolved in acetone in an amount equal to 3% of the final volume and then suspended at the desired concentration (in ppm) in acetone and purified water (50/50 mix by volume) containing 250 ppm of the surfactant Trem® 014 (polyhydric alcohol esters). The resulting test suspensions were then used in Tests A-C. Spraying a 200 ppm test suspension to the point of run-off on the test plants was equivalent to a rate of 500 g/ha.
Grape seedlings were inoculated with a spore suspension of Plasmopara viticola (the causal agent of grape downy mildew) and incubated in a saturated atmosphere at 20° C. for 24 h. After a short drying period, the test suspension was sprayed to the point of run-off on the grape seedlings, which were then moved to a growth chamber at 20° C. for 5 days, after which time the grape seedling were placed back into a saturated atmosphere at 20° C. for 24 h. Upon removal, visual disease ratings were made.
Results for Tests A-C are given in Table A. In the table, a rating of 100 indicates 100% disease control and a rating of 0 indicates no disease control (relative to the controls). A dash (-) indicates no test results, “*” indicates compound was tested at 40 ppm and “**” indicates compound was tested at 10 ppm.

Test [1] has as its system Phytophthora infestans. The settings on record: tomato late blight, sprayed the day before inoculation.
Test [2] concerns Phytophthora infestans. The settings on record: tomato late blight, sprayed 17 h after inoculation.

The values that follow come from patent US8349870B2 (priority 2008, dated 2013).

Where two headings read alike, the source gives them in different places.

For `Cc1cc(C)c(C(=O)C(=O)N2CCC(c3nc(C4=NOC(c5ccccc5F)C4)cs3)CC2)c(C)c1` (stereo not drawn) [compound 51], the “Test A rating (% disease control)” value with Plasmopara viticola ("*" compound tested at 40 ppm) was determined as 0%. In addition, the “Test B rating (% disease control)” value with Phytophthora infestans [1] ("*" compound tested at 40 ppm) was found to be 52%. Moreover, the “Test C rating (% disease control)” value in the test with Phytophthora infestans [2] ("*" compound tested at 40 ppm) was determined as 0%.

`CSC(=Nc1cc(C)ccc1C)N1CCC(c2nc(C3=NOC(c4c(F)cccc4F)C3)cs2)CC1.I` (stereo not drawn) [compound 26]: in the test with Plasmopara viticola ("*" compound tested at 40 ppm), the “Test A rating (% disease control)” value was found to be 99%. In the test on Phytophthora infestans [1] ("*" compound tested at 40 ppm), the “Test B rating (% disease control)” value is recorded as 100%. Further, the “Test C rating (% disease control)” value in the test on Phytophthora infestans [2] ("*" compound tested at 40 ppm) is 93%.

`CCOC(=Nc1cc(C)ccc1C)N1CCC(c2nc(C3=NOC(c4ccccc4)C3)cs2)CC1` (stereo not drawn) [compound 29]: the “Test A rating (% disease control)” value in the test on Plasmopara viticola ("*" compound tested at 40 ppm) worked out at 92%. In the test on Phytophthora infestans [1] ("*" compound tested at 40 ppm), the “Test B rating (% disease control)” value was determined as 99%. Further, in the test on Phytophthora infestans [2] ("*" compound tested at 40 ppm), the “Test C rating (% disease control)” value is on record as 80%.

Take “methyl 4-[4-(4,5-dihydro-5-phenyl-3-isoxazoly)-2-thiazolyl]-N-(2,5-dimethylphenyl)-1-piperidinecarboximidate [Example 3]”: the “Test A rating (% disease control)” value with Plasmopara viticola ("*" compound tested at 40 ppm) was found to be 99%. In the test with Phytophthora infestans [1] ("*" compound tested at 40 ppm), the “Test B rating (% disease control)” value came to 100%. Also, in the test with Phytophthora infestans [2] ("*" compound tested at 40 ppm), the “Test C rating (% disease control)” value stood at 99%.

As for `Cc1ccc(C)c(N=C(N(C)C)N2CCC(c3nc(C4=NOC(c5c(F)cccc5F)C4)cs3)CC2)c1` (stereo not drawn) [compound 38], the “Test A rating (% disease control)” value with Plasmopara viticola ("*" compound tested at 40 ppm) was 8%. For the same compound, the “Test B rating (% disease control)” value in the test with Phytophthora infestans [1] ("*" compound tested at 40 ppm) worked out at 33%. In the test with Phytophthora infestans [2] ("*" compound tested at 40 ppm), the “Test C rating (% disease control)” value was 0%.

`CCC(C)NC(=O)N1CCC(c2nc(C3=NOC(c4ccccc4)C3)cs2)CC1` (stereo not drawn) [compound 17]: the “Test A rating (% disease control)” value with Plasmopara viticola ("*" compound tested at 40 ppm) is reported as 86%. The “Test B rating (% disease control)” value in the test with Phytophthora infestans [1] ("*" compound tested at 40 ppm) is listed as 100%. Moreover, the “Test C rating (% disease control)” value with Phytophthora infestans [2] ("*" compound tested at 40 ppm) is reported as 95%.

With `Cc1ccc(C)c(N=C(N)N2CCC(c3nc(C4=NOC(c5ccccc5)C4)cs3)CC2)c1` (stereo not drawn) [compound 23], in the test with Plasmopara viticola ("**" compound tested at 10 ppm), the “Test A rating (% disease control)” value is 79%. Further, the “Test B rating (% disease control)” value with Phytophthora infestans [1] ("**" compound tested at 10 ppm) came out at 100%. Further, the “Test C rating (% disease control)” value in the test with Phytophthora infestans [2] ("**" compound tested at 10 ppm) stood at 33%.
